The C3SDB collision cross section collection

conditions: [M+H-H2O]+; instrument: TW; calibrated with polyalanine and drug standards

collision cross section (N2) | Structure (SMILES)
166.7 Å² | NS(=O)(=O)c1cc(C2(O)NC(=O)c3ccccc32)ccc1Cl (stereo not given) [CHLORTHALIDONE]
173 Å² | COc1ccc2c(c1)OC1(O)COc3cc(OC)c(OC)cc3C1=C2 (stereo not given) [12a-HYDROXY-5-DEOXYDEHYDROMUNDUSERONE]

same assay, conditions: [M+H]+; instrument: TW; calibrated with polyalanine and drug standards

Structure (SMILES) | collision cross section (N2)
Nc1[nH]c(=O)ncc1F [FLUCYTOSINE] | 118.4 Å²
CC(C)NCC(O)c1ccc(O)c(O)c1 (stereo not given) [ISOPROTERENOL] | 149.4 Å²
COc1ccc(-c2coc3cc(OC)ccc3c2=O)cc1 [7,4'-DIMETHOXYISOFLAVONE] | 160.3 Å²
O=[N+]([O-])c1cc([As](=O)(O)O)ccc1O [ROXARSONE] | 145.5 Å²
COc1ccc(-c2cc(=O)c3c(O)cc(OC)c(OC)c3o2)c(OC)c1 [5-HYDROXY-2',4',7,8-TETRAMETHOXYFLAVONE] | 182 Å²
CC(=O)O[C@@H]1CC2C(C)(CC[C@H](O)C2(C)C)C2CC[C@]3(C)C(=CC(=O)O[C@H]3c3ccoc3)C21C (stereo partly drawn) [3beta-HYDROXYDEOXODIHYDRODEOXYGEDUNIN] | 207.1 Å²
CC1(C)O[C@@H]2C[C@H]3[C@@H]4CCC5=CC(=O)C=C[C@]5(C)[C@H]4[C@@H](O)C[C@]3(C)[C@]2(C(=O)CO)O1 [DESONIDE] | 198.5 Å²
COc1cc2c(cc1OC)-c1c(oc3c4c(ccc3c1=O)OC(C(C)C)C4)CO2 (stereo not given) [DEHYDRODIHYDROROTENONE] | 194.6 Å²
OCCN(CCO)c1nc(N2CCCCC2)c2nc(N(CCO)CCO)nc(N3CCCCC3)c2n1 [DIPYRIDAMOLE] | 223.9 Å²
O=C(O[C@@H]1Cc2c(O)cc(O)cc2O[C@@H]1c1ccc(O)c(O)c1)c1cc(O)c(O)c(O)c1 [EPICATECHIN MONOGALLATE] | 202.9 Å²
CCN(CC)C(=O)c1ccc(O)c(OC)c1 [ETHAMIVAN] | 149 Å²
CCCCCCCCCCCCCCCC(=O)OC[C@H](O)[C@H]1OC(=O)C(O)=C1O [ASCORBYL PALMITATE] | 204.8 Å²
COc1ccc(-c2oc3cc(OC)c(OC)c(OC)c3c(=O)c2OC)cc1OC [HEXAMETHYLQUERCETAGETIN] | 191.2 Å²
Cc1cccc(C)c1NC1=NCCCS1 [XYLAZINE] | 147.8 Å²
COC1=CC(=O)C[C@@H](C)[C@]12Oc1c(Cl)c(OC)cc(OC)c1C2=O [GRISEOFULVIN] | 178.6 Å²
C=C(C)[C@H]1Cc2c(ccc3c2O[C@@H]2COc4cc(OC)c(OC)cc4[C@@H]2C3=O)O1 [ROTENONE] | 193.2 Å²
CC(=O)O[C@@H]1CC[C@@]2(C)C(C[C@@H](OC(C)=O)[C@@]3(C)C4=CC(=O)O[C@@H](c5ccoc5)[C@]4(C)CCC23)C1(C)C (stereo partly drawn) [3alpha-ACETOXYDIHYDRODEOXYGEDUNIN] | 218 Å²
COc1cc(/C=C/C(=O)CC(=O)/C=C/c2ccc(O)c(OC)c2)ccc1O [CURCUMIN] | 198.5 Å²
COc1cc2c(cc1-c1cc3cc4ccoc4cc3oc1=O)OCO2 [PACHYRRHIZIN] | 170.7 Å²
Nc1cc(-c2ccncc2)c[nH]c1=O [AMRINONE] | 139 Å²
COc1cc2c(c(OC)c1OC)-c1ccc(OC)c(=O)cc1[C@@H](NC(C)=O)CC2 [COLCHICINE] | 194.5 Å²

Structure (SMILES) | collision cross section (N2)
O=c1cccc2n1C[C@@H]1CNC[C@H]2C1 [CYTISINE] | 137.9 Å²
COC(=O)C[C@H]1C(C)(C)C2(O)OC34CC2C(=O)[C@]1(C)C3CC[C@]1(C)C4=CC(=O)O[C@H]1c1ccoc1 (stereo partly drawn) [8beta-HYDROXYCARAPIN, 3,8-HEMIACETAL] | 208.8 Å²
CN(C)Cc1c[nH]c2ccccc12 [GRAMINE] | 134.9 Å²
COc1cccc2c1C(=O)c1c(O)c3c(c(O)c1C2=O)C[C@@](O)(C(C)=O)C[C@@H]3O[C@H]1C[C@H](N)[C@H](O)[C@H](C)O1 [DAUNORUBICIN] | 222.9 Å²
C/C=C/C(=O)N(CC)c1ccccc1C [CROTAMITON] | 145.1 Å²
CC(=O)O[C@H]1C[C@@H](O)C(C)(C)C2C[C@@H](OC(C)=O)[C@]3(C)C(CC[C@@]4(C)[C@H](c5ccoc5)OC(=O)C5OC543)[C@]21C (stereo not given in full) [3-DEACETYLKHIVORIN] | 215.9 Å²
O=P1(NCCCl)OCCCN1CCCl (stereo not given) [IFOSFAMIDE] | 147 Å²
CC(=O)O[C@H]1C[C@H](O[C@H]2[C@@H](O)C[C@H](O[C@H]3[C@@H](O)C[C@H](O[C@H]4CC[C@@]5(C)[C@H](CC[C@@H]6[C@@H]5C[C@@H](O)[C@]5(C)[C@@H](C7=CC(=O)OC7)CC[C@]65O)C4)O[C@@H]3C)O[C@@H]2C)O[C@H](C)[C@H]1O[C@@H]1O[C@H](CO)[C@@H](O)[C@H](O)[C@H]1O [LANATOSIDE C] | 289.4 Å²
CC(=O)Oc1ccc(/C=C/c2cc(OC(C)=O)cc(OC(C)=O)c2)cc1 [TRIACETYLRESVERATROL] | 171.1 Å²
NS(=O)(=O)c1cc(C(=O)O)c(NCc2ccco2)cc1Cl [FUROSEMIDE] | 169.3 Å²
CCn1nc(C(=O)O)c(=O)c2cc3c(cc21)OCO3 [CINOXACIN] | 148.5 Å²
COc1ccc(-c2oc3c(CC=C(C)C)c(O[C@@H]4O[C@H](CO)[C@@H](O)[C@H](O)[C@H]4O)cc(O)c3c(=O)c2O[C@@H]2O[C@@H](C)[C@H](O)[C@@H](O)[C@H]2O)cc1 [ICARIIN] | 260.8 Å²
CC(C(=O)O)c1ccc(N2Cc3ccccc3C2=O)cc1 (stereo not given) [INDOPROFEN] | 166.6 Å²
NS(=O)(=O)c1cc2c(cc1C(F)(F)F)NC(Cc1ccccc1)NS2(=O)=O (stereo not given) [BENDROFLUMETHIAZIDE] | 188.6 Å²
COC(=O)Nc1nc2ccc(Sc3ccccc3)cc2[nH]1 [FENBENDAZOLE] | 170.8 Å²
CC(=O)c1ccc(S(=O)(=O)NC(=O)NC2CCCCC2)cc1 [ACETOHEXAMIDE] | 178.2 Å²
CCCCCCc1ccc(O)cc1O [HEXYLRESORCINOL] | 129 Å²
O=c1cc(-c2ccc(O)cc2)oc2cc(O[C@@H]3O[C@H](CO)[C@@H](O)[C@H](O)[C@H]3O[C@@H]3OC[C@](O)(CO)[C@H]3O)cc(O)c12 [APIIN] | 229.3 Å²
Oc1c(I)cc(I)c2cccnc12 [IODOQUINOL] | 143.7 Å²
C1CCc2nnnn2CC1 [PENTYLENETETRAZOL] | 124.5 Å²

Results, then the compound that gave them:

collision cross section (N2) | Structure (SMILES)
183.2 Å² | CC(=O)[C@H]1CC[C@H]2[C@@H]3C[C@H](C)C4=CC(=O)CC[C@]4(C)[C@H]3[C@@H](O)C[C@]12C [MEDRYSONE]
194.8 Å² | CN(Cc1cnc2nc(N)nc(N)c2n1)c1ccc(C(=O)N[C@@H](CCC(=O)O)C(=O)O)cc1 [METHOTREXATE]
132.9 Å² | C[N+](C)(C)C[C@H](O)CC(=O)[O-] [LEVOCARNITINE]
197.1 Å² | CC1(C)O[C@@H]2C[C@H]3[C@@H]4CCC5=CC(=O)C=C[C@]5(C)[C@@]4(F)[C@@H](O)C[C@]3(C)[C@]2(C(=O)CO)O1 [TRIAMCINOLONE ACETONIDE]
267.8 Å² | CO[C@H]1/C=C/O[C@@]2(C)Oc3c(C)c(O)c4c(O)c(c5c(nc6cc(C)ccn65)c4c3C2=O)NC(=O)/C(C)=C\C=C\[C@H](C)[C@H](O)[C@@H](C)[C@@H](O)[C@@H](C)[C@H](OC(C)=O)[C@@H]1C [RIFAXIMIN]
148.3 Å² | CC1(C)C=Cc2cc3ccc(=O)oc3cc2O1 [XANTHYLETIN]
247.3 Å² | COC(=O)[C@H]1[C@H]2C[C@@H]3c4[nH]c5cc(OC)ccc5c4CCN3C[C@H]2C[C@@H](OC(=O)c2cc(OC)c(OC)c(OC)c2)[C@@H]1OC [RESERPINE]
147.6 Å² | C[C@](N)(Cc1ccc(O)c(O)c1)C(=O)O [METHYLDOPA]
165.2 Å² | CC(N=C(NC#N)Nc1ccncc1)C(C)(C)C (stereo not given) [PINACIDIL]
170.7 Å² | CN1C(C(=O)Nc2ccccn2)=C(O)c2ccccc2S1(=O)=O [PIROXICAM]
159.2 Å² | O=c1c(O)c(-c2ccc(O)cc2)oc2cc(O)cc(O)c12 [KAEMPFEROL]
205.8 Å² | CC(C)=CCc1c2c(c3occ(-c4ccc(O)c(O)c4)c(=O)c3c1O)C=CC(C)(C)O2 [POMIFERIN]
164.1 Å² | COc1ccc(-c2coc3c(O)c(OC)ccc3c2=O)cc1 [RETUSIN 7-METHYL ETHER]
193.5 Å² | O=C1C(CCS(=O)c2ccccc2)C(=O)N(c2ccccc2)N1c1ccccc1 (stereo not given) [SULFINPYRAZONE]
183.4 Å² | COc1ccnc(CS(=O)c2nc3ccc(OC(F)F)cc3[nH]2)c1OC (stereo not given) [PANTOPRAZOLE]
168.3 Å² | CCCn1cnc2c1c(=O)n(CCCCC(C)=O)c(=O)n2C [PROPENTOFYLLINE]
134.7 Å² | CCCc1cc(=O)[nH]c(=S)[nH]1 [PROPYLTHIOURACIL]
188.5 Å² | C[C@H]1COc2c(N3CCN(C)CC3)c(F)cc3c(=O)c(C(=O)O)cn1c23 [LEVOFLOXACIN]
155.8 Å² | CCc1nc(N)nc(N)c1-c1ccc(Cl)cc1 [PYRIMETHAMINE]

same assay, conditions: [M+Na]+; instrument: TW; calibrated with polyalanine and drug standards

Structure (SMILES) | collision cross section (N2)
OC[C@H]1O[C@H](O[C@]2(CCl)O[C@H](CCl)[C@@H](O)[C@@H]2O)[C@H](O)[C@@H](O)[C@H]1Cl [SUCRALOSE] | 177.2 Å²
CC(C)(O)[C@@H]1[C@H]2OC(=O)[C@@H]1[C@]1(O)C[C@H]3O[C@]34C(=O)O[C@H]2[C@]14C [PICROTIN] | 173.7 Å²

same assay, conditions: [M]+; instrument: TW; calibrated with polyalanine and drug standards

collision cross section (N2) | Structure (SMILES)
162.3 Å² | C[N+](C)(CCOc1ccccc1)Cc1ccccc1 [BEPHENIUM]
